# Reference: ChEMBL document CHEMBL1201862, “PubChem BioAssay data set” (2004)
# The source made the active and inactive calls.
# What was measured:
# [1] = Counterscreen for IDE inhibitors: Luminescence-based cell-based high throughput dose response assay to identify compounds that are cytotoxic to HEK cells. [Related pubchem assays: 434962 (Primary screen (IDE inhibitors in singlicate)), 449730 (Counterscreen (Cytotoxicity in triplicate)), 435028 (Confirmation (IDE inhibitors in triplicate)) …; format: functional; settings: HEK293
# Insulin-degrading enzyme = biological target: T1, Insulin-degrading enzyme (Homo sapiens, UniProt P14735); experiment: Dose Response: Fluorescence polarization-based cell-based high throughput dose response assay for inhibitors of insulin-degrading enzyme (IDE). [Related pubchem assays: 434962 (Primary screen (IDE inhibitors in singlicate)), 449730 (Counterscreen (Cytotoxicity in triplicate)), 435028 (Confirmation (IDE inhibitors in triplicate)), 434984 (Summary …; format: functional
# T1 sequence (P14735 whole entry): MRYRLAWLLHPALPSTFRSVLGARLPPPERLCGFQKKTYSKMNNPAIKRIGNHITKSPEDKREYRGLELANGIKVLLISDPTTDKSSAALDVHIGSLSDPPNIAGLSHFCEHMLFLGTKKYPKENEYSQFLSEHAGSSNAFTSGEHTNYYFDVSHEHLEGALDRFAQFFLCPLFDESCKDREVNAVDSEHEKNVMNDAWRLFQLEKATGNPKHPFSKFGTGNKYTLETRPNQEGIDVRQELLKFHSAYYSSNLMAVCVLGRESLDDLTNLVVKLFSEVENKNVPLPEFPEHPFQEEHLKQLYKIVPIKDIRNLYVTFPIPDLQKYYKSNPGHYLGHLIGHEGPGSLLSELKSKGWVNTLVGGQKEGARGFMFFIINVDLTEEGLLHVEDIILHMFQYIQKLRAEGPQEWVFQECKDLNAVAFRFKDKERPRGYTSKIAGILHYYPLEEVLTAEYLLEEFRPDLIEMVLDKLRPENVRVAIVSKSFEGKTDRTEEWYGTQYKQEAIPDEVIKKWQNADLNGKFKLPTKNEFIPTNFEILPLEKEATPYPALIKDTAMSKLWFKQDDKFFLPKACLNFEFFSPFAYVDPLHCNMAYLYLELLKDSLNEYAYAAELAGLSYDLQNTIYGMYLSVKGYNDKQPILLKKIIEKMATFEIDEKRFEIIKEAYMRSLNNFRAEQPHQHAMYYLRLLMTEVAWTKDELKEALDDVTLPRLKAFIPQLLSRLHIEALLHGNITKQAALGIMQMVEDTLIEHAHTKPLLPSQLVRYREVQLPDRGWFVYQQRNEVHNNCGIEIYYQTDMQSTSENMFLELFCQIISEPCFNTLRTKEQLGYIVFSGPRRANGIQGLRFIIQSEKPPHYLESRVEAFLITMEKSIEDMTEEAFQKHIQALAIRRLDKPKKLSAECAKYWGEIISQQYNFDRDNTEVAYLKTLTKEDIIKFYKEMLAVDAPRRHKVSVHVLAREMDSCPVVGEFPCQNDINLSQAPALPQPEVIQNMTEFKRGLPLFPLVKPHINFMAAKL
# [2] = biological target: G-protein coupled receptor 55 (Homo sapiens, UniProt Q9Y2T6); experiment: GPR55 agonists via beta-arrestin recruitment, primary screen, imaging, U2OS cells, beta-arrestin-GFP redistribution (AID 1961); format: functional
# [3] = biological target: T2, Short transient receptor potential channel 4 (Mus musculus, UniProt Q9QUQ5); experiment: mouse TRPC4 channel activators, dose response, cell-based, HEK293 TRPC4/mu-opioid, Fluo-4 calcium (AID 434937); format: functional
# T2 sequence (Q9QUQ5 whole entry): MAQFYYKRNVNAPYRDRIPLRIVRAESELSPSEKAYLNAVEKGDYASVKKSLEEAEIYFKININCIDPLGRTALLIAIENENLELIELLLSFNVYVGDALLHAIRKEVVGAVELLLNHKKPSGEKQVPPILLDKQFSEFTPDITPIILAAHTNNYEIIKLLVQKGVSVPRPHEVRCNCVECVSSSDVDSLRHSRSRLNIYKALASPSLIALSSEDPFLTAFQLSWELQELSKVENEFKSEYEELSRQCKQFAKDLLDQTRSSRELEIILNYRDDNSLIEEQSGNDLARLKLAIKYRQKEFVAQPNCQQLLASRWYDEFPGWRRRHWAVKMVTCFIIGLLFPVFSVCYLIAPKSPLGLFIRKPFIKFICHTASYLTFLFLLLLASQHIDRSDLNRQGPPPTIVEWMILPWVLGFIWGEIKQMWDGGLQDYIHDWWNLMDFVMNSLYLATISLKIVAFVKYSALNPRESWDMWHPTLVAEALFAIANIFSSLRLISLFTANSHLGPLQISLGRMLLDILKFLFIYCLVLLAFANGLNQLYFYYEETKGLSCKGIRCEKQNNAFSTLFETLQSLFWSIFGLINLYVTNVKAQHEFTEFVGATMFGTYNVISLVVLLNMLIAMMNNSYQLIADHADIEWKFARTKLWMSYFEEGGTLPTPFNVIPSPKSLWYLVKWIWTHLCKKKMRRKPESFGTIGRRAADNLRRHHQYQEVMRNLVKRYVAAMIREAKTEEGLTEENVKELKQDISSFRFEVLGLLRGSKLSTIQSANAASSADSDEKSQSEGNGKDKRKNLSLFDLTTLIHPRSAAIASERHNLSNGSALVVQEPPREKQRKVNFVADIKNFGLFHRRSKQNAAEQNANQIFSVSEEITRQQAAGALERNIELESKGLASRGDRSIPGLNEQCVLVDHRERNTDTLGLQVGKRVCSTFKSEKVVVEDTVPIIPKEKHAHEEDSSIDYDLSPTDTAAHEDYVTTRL
# [4] = biological target: Luciferin 4-monooxygenase (Photinus pyralis, UniProt P08659); experiment: firefly luciferase enzyme inhibitors, dose response, biochemical, luminescence (AID 1891)
# [5] = Luminescence Cell-Based Dose Confirmation HTS to Identify Inhibitors of Platelet Dense Granule Release. [Related pubchem assays: 1663 (Primary HTS), 1678 (Summary of Project)]; format: functional
# [6] = Luminescence-based counterscreen assay for KLF5 inhibitors: dose response cell-based high throughput screening assay to identify cytotoxic compounds using the IEC-6 intestinal epithelial cell line. [Related pubchem assays: 1700 (Primary screen.), 1834 (Confirmation screen.), 1858 (Summary AID.), 1905 (Counterscreen.)]; format: functional
# [7] = cytotoxicity in HEK-293T cells, dose response, cytotoxicity control for TCR NF-kB inhibitor project, luminescence, T-cell screen hits (AID 489026); format: functional, cell-based;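 note: cells exposed to compound about 14 hours before the viability readout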
# [8] = biological target: T3, Microphthalmia-associated transcription factor (Homo sapiens, UniProt O75030); experiment: TRPM1 promoter luciferase signal decrease, dose response, MITF inhibitor project, cell-based, SK-MEL-5, cherry-picked, set 3 (AID 493073); format: functional
# T3 sequence (O75030 whole entry): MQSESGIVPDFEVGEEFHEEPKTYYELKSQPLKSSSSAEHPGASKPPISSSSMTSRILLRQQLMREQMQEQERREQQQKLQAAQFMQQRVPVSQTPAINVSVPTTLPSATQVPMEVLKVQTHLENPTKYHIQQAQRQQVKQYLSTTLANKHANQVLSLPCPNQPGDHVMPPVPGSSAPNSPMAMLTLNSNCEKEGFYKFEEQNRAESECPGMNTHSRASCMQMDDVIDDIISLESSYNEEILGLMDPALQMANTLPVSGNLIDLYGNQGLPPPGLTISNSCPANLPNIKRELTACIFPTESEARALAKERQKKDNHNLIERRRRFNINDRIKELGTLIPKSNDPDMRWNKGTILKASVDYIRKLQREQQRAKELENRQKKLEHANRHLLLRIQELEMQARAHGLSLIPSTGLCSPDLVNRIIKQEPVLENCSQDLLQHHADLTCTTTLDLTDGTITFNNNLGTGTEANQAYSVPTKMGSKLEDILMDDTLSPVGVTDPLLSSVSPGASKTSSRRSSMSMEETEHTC
# A-375 = experiment: MITF: Counter assay: A375 proliferation Measured in Cell-Based System Using Plate Reader - 2084-03_Inhibitor_Dose_DryPowder_Activity. [Related pubchem assays (depositor defined):AID488944]; format: functional; settings: Homo sapiens
# Paired box protein Pax-8 = Paired box protein Pax-8 (Homo sapiens, UniProt Q06710); experiment: inhibitors of PAX8-driven TPO luciferase reporter, dose response, RMG-I cells, cherry-pick (AID 687027); format: functional, cell-based;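 note: luciferase reporter driven by Pax8 target thyroperoxidase promoter measured by SteadyGlo luminescence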
# [9] = non-specific cell cytotoxicity, dose response, cytotoxicity control for PAX8 inhibitor project, plate reader, dry powder samples (AID 743021); format: functional, cell-based
# [10] = Cytotoxicity screening for potential Inhibitors of Bacterial Capsule Biogenesis. [Related pubchem assays (depositor defined):AID488970]; format: functional
# [11] = biological target: FAD-linked sulfhydryl oxidase ALR (Homo sapiens, UniProt P55789); experiment: inhibitors of human ALR sulfhydryl oxidase, dose response, biochemical, H2O2 detection, luminescence, cherry-pick (AID 493248)
# [12] = microbe, parasite or virus in culture; format: functional; settings: Mycobacterium tuberculosis
# [13] = biological target: NACHT, LRR and PYD domains-containing protein 3 (Homo sapiens, UniProt Q96P20); experiment: NALP3 inhibitors in yeast, dose response, luminescent (AID 488799); format: functional
# SUMO-activating enzyme [14] = biological target: T4, SUMO-activating enzyme (Homo sapiens, UniProt Q9UBT2); experiment: SUMOylation inhibitor hit validation, confirmation, SUMOylation inhibitor project, biochemical, AlphaScreen (AID 2018); format: functional
# [15] = HIV-1 Env-mediated cell fusion inhibitors, dose response, CCR5-tropic Env (AID 2279); format: functional
# SUMO-activating enzyme [16] = biological target: T4, SUMO-activating enzyme; experiment: inhibitors of in vitro SUMOylation cascade, primary screen, biochemical, HTRF, uHTS (AID 2006); format: protein-complex assay
# [17] = biological target: Induced myeloid leukemia cell differentiation protein Mcl-1 (Homo sapiens, UniProt Q07820); format: functional
# Induced myeloid leukemia cell differentiation protein Mcl-1, sequence (Q07820 whole entry): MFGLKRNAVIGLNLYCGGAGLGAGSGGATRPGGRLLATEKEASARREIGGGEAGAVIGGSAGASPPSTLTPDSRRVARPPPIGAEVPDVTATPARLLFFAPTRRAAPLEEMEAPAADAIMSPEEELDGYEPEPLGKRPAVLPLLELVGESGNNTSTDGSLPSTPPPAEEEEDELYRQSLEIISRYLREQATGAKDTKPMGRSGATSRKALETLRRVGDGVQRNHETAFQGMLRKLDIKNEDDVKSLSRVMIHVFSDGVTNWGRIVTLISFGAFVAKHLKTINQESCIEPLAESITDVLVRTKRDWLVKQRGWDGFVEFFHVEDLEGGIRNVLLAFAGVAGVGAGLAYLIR
# T4 sequence (Q9UBE0 whole entry, the tested form may be a part): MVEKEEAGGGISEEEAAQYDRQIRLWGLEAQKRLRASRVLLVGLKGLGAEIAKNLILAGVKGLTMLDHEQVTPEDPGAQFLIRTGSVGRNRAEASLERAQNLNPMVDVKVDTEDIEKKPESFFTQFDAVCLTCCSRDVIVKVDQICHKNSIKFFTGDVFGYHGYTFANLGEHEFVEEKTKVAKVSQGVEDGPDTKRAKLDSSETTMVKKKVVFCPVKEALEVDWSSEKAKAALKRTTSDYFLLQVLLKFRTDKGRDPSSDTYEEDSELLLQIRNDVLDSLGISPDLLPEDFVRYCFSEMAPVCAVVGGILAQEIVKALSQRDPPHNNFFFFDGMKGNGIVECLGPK
# T4 sequence (Q9UBT2 whole entry, the tested form may be a part): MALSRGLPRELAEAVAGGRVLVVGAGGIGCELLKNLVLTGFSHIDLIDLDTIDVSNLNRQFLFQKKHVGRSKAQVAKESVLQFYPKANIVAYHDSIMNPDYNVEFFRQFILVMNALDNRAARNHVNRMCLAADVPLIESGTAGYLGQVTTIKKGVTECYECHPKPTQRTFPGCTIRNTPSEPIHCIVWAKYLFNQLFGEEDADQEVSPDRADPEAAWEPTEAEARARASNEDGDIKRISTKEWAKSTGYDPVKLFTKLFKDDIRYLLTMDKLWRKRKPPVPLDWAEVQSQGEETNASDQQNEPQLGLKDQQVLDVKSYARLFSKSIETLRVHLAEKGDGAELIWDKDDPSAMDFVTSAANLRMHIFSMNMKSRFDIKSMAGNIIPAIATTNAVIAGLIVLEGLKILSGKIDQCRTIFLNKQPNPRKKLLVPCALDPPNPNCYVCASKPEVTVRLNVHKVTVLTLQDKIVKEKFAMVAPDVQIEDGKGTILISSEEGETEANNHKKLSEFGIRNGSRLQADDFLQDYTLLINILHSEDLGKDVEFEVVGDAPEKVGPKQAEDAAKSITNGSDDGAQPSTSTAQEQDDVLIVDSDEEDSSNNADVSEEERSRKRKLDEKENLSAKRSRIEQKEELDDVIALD
# FAD-linked sulfhydryl oxidase ALR, sequence (P55789 whole entry): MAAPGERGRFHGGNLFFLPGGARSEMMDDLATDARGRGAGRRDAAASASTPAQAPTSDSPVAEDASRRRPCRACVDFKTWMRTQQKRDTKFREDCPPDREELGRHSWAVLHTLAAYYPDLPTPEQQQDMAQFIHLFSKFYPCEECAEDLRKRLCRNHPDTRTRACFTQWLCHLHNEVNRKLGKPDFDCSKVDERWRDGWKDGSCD
# Luciferin 4-monooxygenase, sequence (P08659 whole entry): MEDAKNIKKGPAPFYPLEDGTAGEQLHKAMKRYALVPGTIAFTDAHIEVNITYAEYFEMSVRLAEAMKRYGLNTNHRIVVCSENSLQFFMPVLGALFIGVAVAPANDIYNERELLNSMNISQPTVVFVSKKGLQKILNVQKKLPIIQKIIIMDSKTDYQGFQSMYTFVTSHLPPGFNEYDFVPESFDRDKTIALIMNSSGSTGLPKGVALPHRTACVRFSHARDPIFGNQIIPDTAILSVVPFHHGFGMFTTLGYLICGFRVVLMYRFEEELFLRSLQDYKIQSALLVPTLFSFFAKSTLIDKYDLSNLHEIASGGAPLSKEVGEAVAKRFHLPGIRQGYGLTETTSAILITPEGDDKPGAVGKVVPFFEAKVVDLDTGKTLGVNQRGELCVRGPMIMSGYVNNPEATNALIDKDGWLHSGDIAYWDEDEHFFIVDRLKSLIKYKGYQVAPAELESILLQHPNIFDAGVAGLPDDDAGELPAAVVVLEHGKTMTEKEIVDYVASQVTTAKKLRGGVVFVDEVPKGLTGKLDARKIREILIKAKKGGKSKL
# Paired box protein Pax-8, sequence (Q06710 whole entry): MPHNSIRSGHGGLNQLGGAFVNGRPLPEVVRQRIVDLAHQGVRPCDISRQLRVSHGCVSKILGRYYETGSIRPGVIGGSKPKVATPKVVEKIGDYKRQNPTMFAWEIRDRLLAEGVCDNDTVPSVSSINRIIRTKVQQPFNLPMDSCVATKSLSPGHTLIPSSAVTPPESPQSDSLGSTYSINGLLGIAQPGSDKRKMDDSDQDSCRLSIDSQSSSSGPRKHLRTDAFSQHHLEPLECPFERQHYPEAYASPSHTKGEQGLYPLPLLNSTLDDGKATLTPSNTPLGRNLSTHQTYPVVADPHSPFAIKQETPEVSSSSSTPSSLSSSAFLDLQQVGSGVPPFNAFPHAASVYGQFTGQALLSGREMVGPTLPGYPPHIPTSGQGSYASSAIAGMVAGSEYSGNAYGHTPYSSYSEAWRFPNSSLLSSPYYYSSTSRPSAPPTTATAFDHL
# NACHT, LRR and PYD domains-containing protein 3, sequence (Q96P20 whole entry, the tested form may be a part): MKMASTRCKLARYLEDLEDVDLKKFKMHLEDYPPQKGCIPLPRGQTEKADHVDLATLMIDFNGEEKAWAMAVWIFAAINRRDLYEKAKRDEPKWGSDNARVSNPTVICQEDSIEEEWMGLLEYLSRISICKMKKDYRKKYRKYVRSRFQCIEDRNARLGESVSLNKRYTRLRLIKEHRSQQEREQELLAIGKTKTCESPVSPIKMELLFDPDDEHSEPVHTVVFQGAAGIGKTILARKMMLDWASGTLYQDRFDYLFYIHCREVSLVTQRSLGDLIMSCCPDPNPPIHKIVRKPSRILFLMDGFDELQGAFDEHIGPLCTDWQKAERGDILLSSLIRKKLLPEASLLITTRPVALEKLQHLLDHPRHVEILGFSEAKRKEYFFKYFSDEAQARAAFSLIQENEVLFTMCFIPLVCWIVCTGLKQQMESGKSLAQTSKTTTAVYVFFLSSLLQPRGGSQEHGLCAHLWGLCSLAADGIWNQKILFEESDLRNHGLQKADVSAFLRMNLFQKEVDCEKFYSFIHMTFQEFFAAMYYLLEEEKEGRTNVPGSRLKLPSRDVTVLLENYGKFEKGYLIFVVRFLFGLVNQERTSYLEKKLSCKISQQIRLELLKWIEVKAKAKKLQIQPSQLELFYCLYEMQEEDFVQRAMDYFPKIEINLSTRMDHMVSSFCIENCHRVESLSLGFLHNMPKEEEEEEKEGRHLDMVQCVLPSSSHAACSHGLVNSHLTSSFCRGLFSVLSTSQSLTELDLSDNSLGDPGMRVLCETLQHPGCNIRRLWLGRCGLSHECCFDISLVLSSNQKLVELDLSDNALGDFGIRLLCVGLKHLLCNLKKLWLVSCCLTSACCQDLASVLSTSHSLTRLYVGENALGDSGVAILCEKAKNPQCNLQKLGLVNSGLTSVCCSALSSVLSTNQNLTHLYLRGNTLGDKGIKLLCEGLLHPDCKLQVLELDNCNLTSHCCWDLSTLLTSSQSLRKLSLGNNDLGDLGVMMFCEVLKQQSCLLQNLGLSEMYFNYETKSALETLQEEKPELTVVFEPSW
# G-protein coupled receptor 55, sequence (Q9Y2T6 whole entry): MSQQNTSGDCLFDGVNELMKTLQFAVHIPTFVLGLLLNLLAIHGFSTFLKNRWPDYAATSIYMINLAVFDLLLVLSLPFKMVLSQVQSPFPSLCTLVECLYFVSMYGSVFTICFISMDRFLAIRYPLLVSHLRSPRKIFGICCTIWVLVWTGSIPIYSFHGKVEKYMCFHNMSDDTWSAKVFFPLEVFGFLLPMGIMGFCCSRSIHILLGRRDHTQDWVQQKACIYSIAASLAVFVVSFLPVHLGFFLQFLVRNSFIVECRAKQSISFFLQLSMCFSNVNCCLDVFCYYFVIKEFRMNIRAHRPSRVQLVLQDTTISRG
structure (smiles),measurement,setting,value
CN(C)c1ccc(/C=C/C(=O)c2c(O)oc3ccccc3c2=O)cc1,IC50,[1],> 55.7 µM (not active)
same,IC50,Insulin-degrading enzyme,> 2.07 µM (active)
same,EC50,[2],19.5 µM (inactive)
same,EC50,[3],7.5 µM (active)
COc1cccc(/C=N/Nc2ccc(C(=O)O)cc2)c1O,EC50,[4],0.693 µM (active)
same,EC50,[5],0.17 µM (active)
same,IC50,[6],> 39.8 µM (not active)
same,IC50,[7],> 80 µM (inactive)
same,AC50,[8],0.333 µM (active)
same,AC50,A-375,29.9 µM (active)
same,AC50,Paired box protein Pax-8,0.635 µM (active)
same,AC50,[9],21.6 µM (active)
O=C(Nc1ccncc1)c1ccc2ncsc2c1,CC50,[10],> 100 µM (active)
same,AC50,[11],1.34 µM (active)
O=C(NCCC1=CCCCC1)c1c(O)nc2sccn2c1=O,CC50,[12],13.8 µM (active)
same,IC50,[13],3.8 µM (active)
CN(C)S(=O)(=O)c1cccc(-c2nn(-c3ccccc3)cc2/C=C2\SC(=S)NC2=O)c1,IC50,SUMO-activating enzyme [14],7.59 µM (active)
same,IC50,[15],7.08 µM (active)
same,IC50,SUMO-activating enzyme [16],10.6 µM (active)
same,IC50,[17],1.44 µM (active)
